From patent US11358931B2, “Selective androgen receptor modulators (SARMs) and uses thereof” (priority 2007, dated 2022)

Legend:
hAR = hAR (Homo sapiens, UniProt P10275); test: cell-based
hPR-B = target: T1, hPR-B (Homo sapiens, UniProt P06401); test: Co-transfection assay, other nuclear receptors: hPR-B; type: cell-based
T1 construct: expressed in transfected cells
T1 sequence (P06401 1-933): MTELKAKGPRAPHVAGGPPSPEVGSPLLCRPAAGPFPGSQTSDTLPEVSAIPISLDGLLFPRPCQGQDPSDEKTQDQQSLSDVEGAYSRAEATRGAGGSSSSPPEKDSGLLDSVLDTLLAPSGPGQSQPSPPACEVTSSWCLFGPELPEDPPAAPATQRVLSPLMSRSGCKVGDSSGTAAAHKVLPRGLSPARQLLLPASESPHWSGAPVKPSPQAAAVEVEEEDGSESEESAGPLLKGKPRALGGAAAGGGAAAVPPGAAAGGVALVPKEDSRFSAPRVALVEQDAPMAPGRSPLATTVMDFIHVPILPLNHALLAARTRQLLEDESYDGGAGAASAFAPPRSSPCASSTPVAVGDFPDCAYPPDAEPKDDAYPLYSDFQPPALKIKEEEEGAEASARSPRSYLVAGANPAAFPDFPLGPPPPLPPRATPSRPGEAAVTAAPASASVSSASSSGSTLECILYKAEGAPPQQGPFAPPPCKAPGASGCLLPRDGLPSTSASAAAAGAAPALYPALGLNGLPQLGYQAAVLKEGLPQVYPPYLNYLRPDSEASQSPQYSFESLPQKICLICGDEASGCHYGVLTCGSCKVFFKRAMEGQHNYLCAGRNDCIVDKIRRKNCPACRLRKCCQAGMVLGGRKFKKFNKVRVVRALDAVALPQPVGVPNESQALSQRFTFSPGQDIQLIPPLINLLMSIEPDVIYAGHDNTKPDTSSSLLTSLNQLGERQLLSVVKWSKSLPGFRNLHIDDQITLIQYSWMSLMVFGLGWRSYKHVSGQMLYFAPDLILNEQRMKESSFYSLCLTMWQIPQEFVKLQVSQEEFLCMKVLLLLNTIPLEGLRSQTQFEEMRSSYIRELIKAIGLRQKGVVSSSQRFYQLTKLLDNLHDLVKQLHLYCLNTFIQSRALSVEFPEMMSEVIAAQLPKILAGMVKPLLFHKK
Excerpt: An exemplary co-transfection assay is the luciferase reporter assay (Evans, Science 240: 889-895 (1988), Berger et al., J Steroid Biochem Mol Biol 41: 733-738 (1992)) can be used to establish the ability of a compound of formulae I, II or III to activate (agonist activity) or repress (antagonist activity) the ability of the human androgen receptor (hAR) to induce gene expression. A human cell line containing endogenously expressed hAR (e.g., MDA-MB-453 cells, derived from a human mammary carcinoma, American Tissue Type Culture Collection [ATCC] HTB 131) can be transfected with an androgen responsive luciferase reporter plasmid to measure the level of cross-reactivity of the compound on other nuclear receptors (such as the glucocorticoid receptor (GR), estrogen receptor (ER), mineralocorticoid receptor (MR), progesterone receptor (PR), retinoid receptor (RAR), retinoid X receptor (RXR), peroxisome proliferator activating receptors alpha (PPARα), gamma (PPARγ) and delta (PPARδ), liver X receptor (LXR), farnesyl X receptor (FXR) and the pregnane X receptor (PXR)). In the assay, luciferase reporter plasmids containing the cDNA for firefly luciferase (LUC) under the control of a conditional promoter containing hormone response elements recognized by the appropriate nuclear receptor are co-transfected into cells with the nuclear receptor expression plasmid. […]

Sprague-Dawley rats = test: 14-day oral toxicity study in Sprague Dawley rats; type: in vivo, rat
Method: A Sprague Dawley Rat model was used to study oral toxicity and toxicokinetics. Animals were assigned to groups by a stratified randomization scheme designed to achieve similar group mean body weights and the groups were randomly assigned to a dosing to provide control of bias.
All animals were dosed via oral gavage once daily for 14 days. The animals were evaluated for changes in clinical signs (mortality/morbidity observations, twice daily), cage side observations (general appearance and behavior), food consumption (quantitatively measured by weighing), body weights, clinical pathology indices including serum chemistry, hematology, coagulation and urinalysis, and other parameters. Blood samples were collected for toxicokinetics analysis from Groups 6-10 at various time points on Days 1 and 14 (Group 6 4 hours post dose; Groups 7-10 at 1, 4 and 12 hours or 2, 8 and 24 hours). The animals were fasted for at least 8 hours prior to blood collections for serum chemistry and urine collection. Serum chemistry parameters tested included alanine aminotransferase, total protein, aspartate aminotransferase, albumin, alkaline phosphatase, globulin, gamma-glutamyl-transferase, albumin/globulin ratio, lactate dehydrogenase, glucose, total bilirubin, cholesterol, urea nitrogen, triglycerides, creatinine, sodium, calcium, potassium, phosphorus and chloride. Hematology parameters analyzed included red blood cell count, reticulocyte count, hemoglobin concentration, red blood cell distribution width, mean corpuscular volume, mean platelet volume, mean corpuscular hemoglobin concentration, white blood cell count and differentials and mean corpuscular hemoglobin. Urinalysis parameters included color/character, ketones, specific gravity, bilirubin, pH, occult blood, protein, glucose and microscopics. Main study animals were euthanized on Day 15. At termination, a full necropsy was conducted and all tissues were collected, preserved, processes and examined microscopically from Groups 1 and 5, and target organs (liver and kidney) from Groups 2-4, by a veterinary pathologist certified by the American College of Veterinary Pathologists.
Control vehicle included Peg-400 (Sigma P-3265), Tween 80 (Sigma P-8074) and PVP-K30 (polyvinyl pyrrolidone or povidone K-30, Spectrum PN P1454) at a ratio of 90:5:5, w/w/w. Appropriate amounts of Compound 102 were added to the control vehicle to produce homogeneous dosing solutions/suspensions.

Sequence of hAR (P10275 whole entry): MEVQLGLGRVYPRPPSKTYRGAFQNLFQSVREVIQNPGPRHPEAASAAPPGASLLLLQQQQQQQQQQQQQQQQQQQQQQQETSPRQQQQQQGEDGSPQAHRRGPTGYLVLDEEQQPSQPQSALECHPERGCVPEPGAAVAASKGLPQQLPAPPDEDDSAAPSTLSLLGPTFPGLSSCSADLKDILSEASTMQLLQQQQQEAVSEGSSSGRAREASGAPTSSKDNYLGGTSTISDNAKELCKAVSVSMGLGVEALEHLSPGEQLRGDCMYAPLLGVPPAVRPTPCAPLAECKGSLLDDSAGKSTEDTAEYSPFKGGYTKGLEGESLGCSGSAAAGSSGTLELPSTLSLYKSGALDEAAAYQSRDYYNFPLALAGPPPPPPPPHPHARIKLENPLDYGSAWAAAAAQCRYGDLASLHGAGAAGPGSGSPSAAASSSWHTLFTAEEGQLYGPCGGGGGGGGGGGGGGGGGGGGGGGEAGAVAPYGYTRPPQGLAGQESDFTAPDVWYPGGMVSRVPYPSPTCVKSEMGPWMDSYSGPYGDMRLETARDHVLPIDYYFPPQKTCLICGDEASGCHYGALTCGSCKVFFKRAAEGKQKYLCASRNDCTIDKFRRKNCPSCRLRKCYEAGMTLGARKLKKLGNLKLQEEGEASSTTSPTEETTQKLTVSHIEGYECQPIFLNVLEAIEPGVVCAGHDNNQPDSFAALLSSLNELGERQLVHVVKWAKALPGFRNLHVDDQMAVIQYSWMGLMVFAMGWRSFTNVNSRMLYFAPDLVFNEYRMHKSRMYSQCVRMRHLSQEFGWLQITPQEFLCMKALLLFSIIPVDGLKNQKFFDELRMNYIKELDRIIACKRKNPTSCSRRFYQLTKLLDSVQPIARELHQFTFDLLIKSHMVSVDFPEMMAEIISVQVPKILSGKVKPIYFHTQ

## N#Cc1ccc(N2CCC[C@@H]2[C@@H](O)C(F)(F)F)cc1C(F)(F)F [Compound 102, R,R-4-(2-(1-Hydroxyl-2,2,2-trifluoroethyl)-pyrrolidinyl)-2-trifluoromethyl-benzonitrile]
hAR
  EC50: 3.1 nM
hAR; MDA-MB-453, read-out: efficacy relative to dihydrotestosterone (DHT)
  Emax: 59%
hPR-B
  IC50: 280 nM
hPR-B; progesterone-induced activation
  antagonism of progesterone-induced activation of hPR-B (efficacy): 74%
Sprague-Dawley rats; 10, 100, 300 or 700 mg/kg/day, 14 days
  morbidity / early death: not associated with test article-related morbidity or early death
Sprague-Dawley rats; 10-700 mg/kg/day
  macroscopic or microscopic changes (postmortem): no macroscopic or microscopic changes
  urinalysis parameters: no alterations
Sprague-Dawley rats; both sexes, not correlated with hepatocellular size or liver pathology
  liver weight: Dose-dependent liver weight increases
Sprague-Dawley rats; female animals, all dose levels
  food consumption: statistically significant increase in food consumption
Sprague-Dawley rats; female rats dosed at ≥10 mg/kg/day
  alkaline phosphatase values and phosphorus concentrations: minimally higher
Sprague-Dawley rats; female rats ≥10 mg/kg/day
  reticulocyte counts and red cell distribution width: higher reticulocyte counts and red cell distribution width
Sprague-Dawley rats; females ≥100 mg/kg/day, males 10 and 700 mg/kg/day
  platelet counts: increased with statistical significance
Sprague-Dawley rats; male and female animals, 300 and 700 mg/kg/day
  prothrombin time: minimal prolongation
Sprague-Dawley rats; male and female animals, versus control
  body weight gain: increased weight gain compared to control animals
Sprague-Dawley rats; male rats ≥100 mg/kg/day, female rats ≥300 mg/kg/day
  triglyceride concentrations: minimally lower
Sprague-Dawley rats; male rats ≥300 mg/kg/day, female rats ≥100 mg/kg/day
  potassium levels: minimally higher
Sprague-Dawley rats; particularly female animals at ≥100 mg/kg/day
  clinical observations: increased incidence and frequency in rough hair coat and nasal discharge
